Patent publication US20230090691A1, “COMPOSITIONS AND METHODS FOR PROMOTING AND/OR MAINTAINING VAGINOVULVAL AND PERIANAL TISSUE VITALITY AND TISSUE HEALTH” (SPINART, LLC, priority 2021, published 2023)
Values joined by “and” are separate entries in the source; they are usually repeats but may differ in a detail not shown here. Equal values may be shown once. “Also recorded” adds a separate entry of the source.

Tests used:
[1] = test system: urogenital atrophy in breast cancer patients; conditions: study of 46 patients; compared to saline; cited from earlier work
[2] = test system: human keratinocytes (HaCaT); test: Wound-healing (scratch) assay; format: cell-based; conditions: for wound area Basal (0 h): 20 ng/ml wells, immediately after wounding; for wound area Basal (0 h) / % area wound 24 h / % relative Area to Control 24 h / % wound healing 24 h / wound area 24 h: replicates; for wound healing enhanced, compared to the untreated control / Decreased wound area / % area wound 24 h / % relative Area to Control 24 h / % wound healing 24 h / wound area 24 h: 20 ng/ml; for wound healing enhanced, compared to the untreated control: 24 hours; for Decreased wound area: 24 hr
Description: An in vitro scratch assay was used to study cell migration in vitro. [Todaro, G J et al. The initiation of cell division in a contact-inhibited mammalian cell line. J. Cell Physiol. (1965) 66: 325-33]. This method is based on the observation that, upon creation of a new artificial gap or “scratch”, on a confluent cell monolayer, the cells on the edge of the newly created gap will move toward the opening to close the “scratch” until new cell-cell contacts are established. One of the major advantages of this simple method is that it mimics to some extent migration of cell in vivo. For example, removal of part of the endothelium in blood vessels will induce migration of endothelial cells (ECs) into the denuded area to close the wound [Haudenschild, C. et al. Endothelial regeneration. II. Restitution of endothelial continuity. Lab. Invest. (1979) 41: 407-18]. Furthermore, the patterns of migration either as a loosely connected population (e.g., fibroblasts) or as sheets of cells (e.g., epithelial and EECs) also mimic the behavior of these cells during migration in vivo. The scratch assay is particularly suitable to study the regulation of cell migration by cell interaction with extracellular matrix (ECM) and cell-cell interactions.
For the wound-healing assay, HaCaT keratinocytes were seeded overnight in DMEM medium supplemented with 10% fetal bovine serum (FBS) at 80% confluence (190,000 cells per well. The next day, a 2 mm wound was made over the confluent monolayer using a 1 ml pipete tip. Test samples were added to the HaCaT cells, supplemented with 0.5% FBS. The untreated control was 0.5% FBS.
Images were taken before and after 24 hours of treatment, and wound area was quantified using ImageJ software. All data were statistically analyzed.
For seeding cells, cell numbers and viability were determined using Trypan-Blue staining; cells were counted in a Bürker chamber under the microscope. Human keratinocytes (HaCaT cells) were seeded overnight in DMEM medium supplemented with 10% fetal bovine serum (FBS).
Parallel lines were drawn at the bottom of the wells (3 mm separated lines outside the plate). These lines were used as boundaries for scratch images, thus providing an accurate analysis in each well. Cells were seeded at 190,000 cells/well to promote the formation of a monolayer and kept at 37 C for 24 h. Then, 2 mm-wide wounds were made in the confluent monolayer. Wells were washed once with PBS and refilled with DMEM+0.5% FBS. Basal images were taken immediately using a microscope. […] In addition, human epidermal growth factor (hEGF) at 20 ng/ml was included as a positive control, and 0.5% FBS as a basal control.
Plates were placed in the 37° C. incubator and incubated for 24 h to allow the scratch to heal. Microscopic images are shown below. One biological replicate was performed and four technical replicates per condition were used.
Data analysis was performed using ImageJ software. Microscopic images are shown in Results. Statistical analysis (ordinary one-way ANOVA test) was performed to determine the significance between tested samples and basal control.
The percentage of wound area in each well at 24 hr was calculated by dividing the wound area at 24 hr and the wound area immediately after making the wound. The mean value for the four replicates in the Basal Control (untreated) group was obtained and used to normalize each measure in all of the samples and conditions. A bar graph was generated to represent the wound area or wound healing in each of the tested conditions.

[3] = experiment with RS-0198A and RS-0198B

Compound	patients with reduced dyspareunia [1] [%]	wound area Basal (0 h) [2]	wound area Basal (0 h) ([2]; listed as C + EGF)	wound healing enhanced, compared to the untreated control ([2]; experiment with RS012221) [%]	wound healing enhanced, compared to the untreated control [2, 3] [%]	Decreased wound area ([2]; experiment with RS012221) [%]	Decreased wound area [2, 3] [%]	% area wound 24 h [2]	% relative Area to Control 24 h [2]	% wound healing 24 h [2]	wound area 24 h [2]	% area wound 24 h ([2]; listed as C + EGF)	% relative Area to Control 24 h ([2]; listed as C + EGF)	% wound healing 24 h ([2]; listed as C + EGF)	wound area 24 h ([2]; listed as C + EGF)	wound area (result in words) ([2]; 24 hr treatment of HaCaT, compared to the untreated control)	wound healing (result in words) ([2]; 24 h treatment of HaCaT, compared to untreated control, concentrations as in the sentence, listed as hEGF)
CCN(CC)CC(=O)Nc1c(C)cccc1C [lidocaine]	90																
EGF: human epidermal growth factor, positive control at 20 ng/ml		1324098 pixels and 1346138 pixels and 1134400 pixels and 1741659 pixels	1188450 pixels and 1278864 pixels and 1237384 pixels and 1227903 pixels	94.0±8.6	60.4±15.7	94.0±8.6	60.4 ± 15.7	19.877% and 29.524% and 18.706% and 6.405%	42.310% and 62.846% and 39.818% and 13.633%	57.690% and 37.154% and 60.182% and 86.367%	263185 pixels and 397433 pixels and 212198 pixels and 111545 pixels	27.291% and 2.058% and 0.000% and 5.244%	89.630% and 6.758% and 0.000% and 17.222%	10.370% and 93.242% and 100.000% and 82.778%	24456 pixels and 0 pixels (2×) and 64389 pixels	significantly decreased wound area	enhanced wound healing; also recorded: boosted wound healing
